Patent US6004994A, “Heterocyclic diarylmethylene derivatives, methods of preparing them and their uses in therapeutics” (Laboratoires UPSA, priority 1998, dated 1999)

Assays:
[1] = target: T1, COX-1 (Ovis aries, UniProt P05979); assay: Inhibition of COX-1 enzymatic activity (PGE2 produced determined by EIA); assay type: biochemical, ram (purified enzyme from ram seminal vesicles); settings: 10^-4 M; ram seminal vesicle COX-1, arachidonic acid 6 μM
T1 construct: purified enzyme from ram seminal vesicles; from tissue; host or cells: ram seminal vesicles
T1 sequence (P05979 25-600): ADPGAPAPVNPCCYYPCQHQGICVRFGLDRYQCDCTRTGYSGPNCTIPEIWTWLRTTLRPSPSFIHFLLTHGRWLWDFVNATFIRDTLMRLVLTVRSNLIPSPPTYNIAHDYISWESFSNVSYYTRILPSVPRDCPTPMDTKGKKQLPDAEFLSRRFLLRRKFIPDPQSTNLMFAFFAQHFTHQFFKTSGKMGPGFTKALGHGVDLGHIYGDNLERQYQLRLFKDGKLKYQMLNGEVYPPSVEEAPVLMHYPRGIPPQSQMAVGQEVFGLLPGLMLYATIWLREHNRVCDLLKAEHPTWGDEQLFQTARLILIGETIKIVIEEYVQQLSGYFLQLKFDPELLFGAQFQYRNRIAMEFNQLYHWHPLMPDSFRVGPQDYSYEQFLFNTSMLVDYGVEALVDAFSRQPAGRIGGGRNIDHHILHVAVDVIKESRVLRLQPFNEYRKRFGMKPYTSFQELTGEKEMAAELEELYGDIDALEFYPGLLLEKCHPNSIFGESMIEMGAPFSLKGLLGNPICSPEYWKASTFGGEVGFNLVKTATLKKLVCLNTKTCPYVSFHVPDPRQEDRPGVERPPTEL
Description: (§1) The molecule studied is preincubated for 10 minutes at 25° C. with 2 U of COX-1 (purified enzyme from ram seminal vesicles) or 1 U of COX-2 (purified enzyme from ewe placenta). Arachidonic acid (6 μM for COX-1, 4 μM for COX-2) is added to the reaction medium and incubation is carried out for 5 minutes at 25° C. When incubation has ended, the enzymatic reaction is stopped by the addition of 1 N HCl and the PGE2 produced is deter mined by EIA. […] For other examples, the results are expressed in the form of IC50, the concentration in μM corresponding to 50% inhibition of the maximal enzymatic activity upon COX-1 and COX-2 (n=1 to 4 determinations).

[2] = target: T2, COX-2 (Ovis aries, UniProt P79208); assay: Inhibition of COX-2 enzymatic activity (PGE2 produced determined by EIA); assay type: biochemical, ewe (purified enzyme from ewe placenta); settings: ewe placenta COX-2, arachidonic acid 4 μM; for inhibition at 10 µM: 10^-5 M; for IC50: n=1 to 4 determinations; for inhibition at 1 µM: at 10^-6 M
T2 construct: purified enzyme from ewe placenta; from tissue; host or cells: ewe placenta
T2 sequence (P79208 17-603): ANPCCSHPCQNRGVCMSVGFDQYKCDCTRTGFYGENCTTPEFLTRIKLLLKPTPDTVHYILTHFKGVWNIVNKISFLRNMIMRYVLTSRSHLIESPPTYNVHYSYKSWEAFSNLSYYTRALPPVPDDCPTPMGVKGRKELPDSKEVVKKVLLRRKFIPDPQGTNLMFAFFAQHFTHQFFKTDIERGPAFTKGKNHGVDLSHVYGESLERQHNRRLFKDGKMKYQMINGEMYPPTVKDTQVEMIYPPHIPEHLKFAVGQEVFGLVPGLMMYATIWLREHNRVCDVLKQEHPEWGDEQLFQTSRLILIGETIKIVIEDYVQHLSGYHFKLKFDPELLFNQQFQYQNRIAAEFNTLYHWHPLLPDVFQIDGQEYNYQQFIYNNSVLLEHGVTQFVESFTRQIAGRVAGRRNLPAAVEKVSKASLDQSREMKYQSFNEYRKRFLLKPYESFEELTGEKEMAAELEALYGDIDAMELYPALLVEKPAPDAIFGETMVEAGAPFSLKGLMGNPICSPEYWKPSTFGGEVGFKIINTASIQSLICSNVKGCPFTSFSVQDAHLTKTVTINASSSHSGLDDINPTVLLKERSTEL
Description: as §1

[3] = test system: arthritis with kaolin; assay: Analgesic activity: arthritis with kaolin in rats; assay type: in vivo; settings: rat, oral, thirty minutes after intra-articular kaolin; dose inducing 50% decrease of the maximal quotations of control
Description: The analgesic activity of the compounds of the Examples was evaluated according to the method of arthritis with kaolin.
The analgesic activity is evaluated in rats by the test of arthritis with kaolin. Thirty minutes after intra-articular administration of an aqueous 10% suspension of kaolin, the product is administered orally at a rate of 1 ml 100 g (n=10 animals per dose). The results are expressed in the form of ED50, the dose in mg/kg which induces 50% decrease of the maximal quotations obtained in the control batch, calculated by linear regression.

inhibition at 100 µM [1] | inhibition at 10 µM [2] | IC50 [2] | inhibition at 1 µM [2] | SMILES | ED50 [3]
6% | 77% | 2940 nM |  | CN1CC/C(=C(/c2ccc(Cl)cc2)c2ccc(S(C)(=O)=O)cc2)C1=O [28 Z isomer] | 
72% | 86% |  |  | CS(=O)(=O)c1ccc(/C(=C2\CCN(C3CCCCC3)C2=O)c2ccc(Cl)cc2)cc1 [29 Z isomer] | 
 | 56% |  |  | CC(=O)OCCN1CC/C(=C(/c2ccc(Cl)cc2)c2ccc(S(C)(=O)=O)cc2)C1=O [30 Z isomer] | 
88% | 88% |  |  | CS(=O)(=O)c1ccc(/C(=C2\CCN(Cc3ccccc3)C2=O)c2ccc(Cl)cc2)cc1 [31 Z isomer] | 18.5 mg/kg
13% | 84% | 2530 nM |  | CCN1CC/C(=C(/c2ccc(Cl)cc2)c2ccc(S(C)(=O)=O)cc2)C1=O [32 Z isomer] | 
 |  | 393 nM | 70% | CN1CC/C(=C(\c2ccc(S(N)(=O)=O)cc2)c2ccc(Cl)c(Cl)c2)C1=O [33 Z isomer] | 
36% | 92% |  |  | CN1CC/C(=C(\c2ccc(S(C)(=O)=O)cc2)c2ccc(Cl)c(Cl)c2)C1=O [53 Z isomer] | 
 | 44% |  |  | COc1ccc(/C(=C2/CCN(C)C2=O)c2ccc(S(C)(=O)=O)cc2)cc1 [55 E isomer] | 
 | 53% |  |  | Cc1cc(/C(=C2/CCN(C)C2=O)c2ccc(S(C)(=O)=O)cc2)ccc1F [56 Z isomer] | 
32% |  |  | 52% | CS(=O)(=O)c1ccc(C(=C2CCN(CCc3ccccc3)C2=O)c2ccc(Cl)cc2)cc1 [60 Z isomer] | 
 |  | 229 nM | 80% | CS(=O)(=O)c1ccc(C(=C2CCN(Cc3ccccc3)C2=O)c2ccc(Cl)c(Cl)c2)cc1 [61 Z isomer] | 
79% | 91% |  |  | CS(=O)(=O)c1ccc(C(=C2CCN(Cc3cccc(Cl)c3)C2=O)c2ccc(Cl)cc2)cc1 [62 Z isomer] | 
83% | 88% |  |  | CS(=O)(=O)c1ccc(C(=C2CCN(Cc3ccccc3Cl)C2=O)c2ccc(Cl)cc2)cc1 [63 Z isomer] | 
 | 59% |  |  | Cc1cccc(CN2CCC(=C(c3ccc(Cl)cc3)c3ccc(S(C)(=O)=O)cc3)C2=O)c1 [64 Z isomer] | 
 | 83% |  |  | CS(=O)(=O)c1ccc(C(=C2CCN(Cc3ccc(Br)cc3)C2=O)c2ccc(Cl)cc2)cc1 [65 Z isomer] | 
90% | 77% | 2830 nM |  | CS(=O)(=O)c1ccc(/C(=C2\N=C(c3ccccc3)OC2=O)c2ccc(Cl)cc2)cc1 [77 E isomer] | 
37% | 72% | 1540 nM |  | CS(=O)(=O)c1ccc(/C(=C2\SC(=S)NC2=O)c2ccc(Cl)cc2)cc1 [78 E isomer] | 
 |  | 120 nM |  | CS(=O)(=O)c1ccc(/C(=C2\CCSC2=O)c2ccc(Cl)cc2)cc1 [80 Z isomer] | 13.7 mg/kg
